Laboratory results reported in patent US20010014676A1, “Immunosuppressive compositions” (priority 1990, published 2001).

Tested on: Lewis-Brown Norway F1 Hybrid cardiac allografts in Lewis recipients
Assay: acute cardiac allograft rejection model (procedure of Kupiec-Weglinski)
Assay type: in vivo, rat
Details: for GRAFT SURVIVAL MEAN ± SD: N=7
Method: The therapeutic efficacy of a pharmaceutical composition of the invention was tested according to the procedure of Kupiec-Weglinski, J. W., et al., (1988) Transplant Proc. 20:207-216 (hereinafter “Kupiec-Weglinski”) to determine its in vivo potency as an acute transplantation/graft rejection modulator.
Briefly, to preform these experiments, the following protocol was employed. Male inbred adult rats (Lewis-Brown Norway F1 Hybrid rats, obtained from Harlan sprague—Dawley Inc., Indianapolis, Ind.) were used. Lewis-Brown Norway F1 Hybrid cardiac allografts were transplanted to the abdominal great vessels of Lewis recipients. The animals were administered compounds according to the following five distinct regimens.
Protocol I. Pretreatment Protocol—20 mg/kg/day of Compound A was administered orally for 7 consecutive days prior to transplantation (days −7 to −1).
Protocol II Treatment Protocol—20 mg/kg/day of Compound A was administered orally for 7 consecutive post-transplant days (days 0-6) followed by intermittent 5 day courses (days 9-13 and 16-20).
Protocol III Pretreatment and Treatment Protocol—20 mg/kg/day of Compound A was administered orally for 7 consecutive days prior to transplantation (days −7 to −1) followed by intermittent 5 day courses (days 9-13 and 16-20).
Ventricular contractions were assessed daily by palpation through the recipient flank. Rejection was defined as the day of cessation of myocardial contractions and confirmed histologically.

With CCCC1(CCC)CCC2(CCN(CCCN(C)C)C2)CC1 [Compound A, N,N-dimethyl-8,8-dipropyl-2-azaspiro [4,5]-decane-2-propanamine] as the molecule, how does the “average graft survival time” value (Compound A alone (pretreatment, treatment or pretreatment and treatment protocol), untreated average 7 days) read?
Its value is 16 days.

What about the “GRAFT SURVIVAL MEAN ± SD” value (Protocol I pretreatment: Compound A 20 mg/kg/day orally, days -7 to -1) of the same molecule?
Its value is 14.7 ± 5.8 days.

What about the “GRAFT SURVIVAL MEAN ± SD” value (Protocol II treatment: Compound A 20 mg/kg/day orally, days 0-6, then days 9-13 and 16-20) of the same molecule?
The value was 16.7 ± 2.0 days.

And the “GRAFT SURVIVAL MEAN ± SD” value (Protocol III pretreatment and treatment: Compound A 20 mg/kg/day orally, days -7 to -1, then days 9-13 and 16-20)?
Its value is 16.0 ± 4.3 days.

What about the “graft survival time (transplants routinely retained)” value (combination protocol: Compound A 20 mg/kg/day orally plus cyclosporin A […] by injection, days 0-6) of the same molecule?
Its value is “over 40 days”.
